Data as given in US20080227710A1, “Use of Conjugates of Doxorubicin with Lactosaminated Albumin” (priority 2005, published 2008).

Experiment: DOXO concentrations in HCCs, heart and intestine of rats with DENA-induced HCCs
Assay type: in vivo, rat
Settings: 4 h after i.v. injection, DOXO measured as free drug, mean ± standard error
Experimental: HCCs were induced by diethyInitrosamine (DENA) given in the drinking water (100 mg/l) for 8 weeks. […] Compounds were injected in the dorsal vein of penis, in a volume of 10 μl/10 g body weight, under isoflurane anaesthesia. For each compound four rats were used. Four hours after the injection the animals were killed under isoflurane anaesthesia. Organs were rapidly removed and frozen and neoplastic nodules were accurately dissected from the surrounding liver. A part of each tumor nodule was frozen; the other part was fixed in 10% formalin and processed for histology. Samples of frozen organs and nodules were used for radioactivity count and determination of DOXO levels. DOXO was measured according to Bots A M, et al. (Analysis of adriamycin . . . J Chromatogr 1983; 272: 421-427), with modifications (Di Stefano G, et al. Doxorubicin coupled to lactosaminated . . . Dig Liver Dis 2003; 35: 428-433).

## COc1cccc2c1C(=O)c1c(O)c3c(c(O)c1C2=O)C[C@@](O)(C(=O)CO)C[C@@H]3O[C@H]1C[C@H](N)[C@H](O)[C@H](C)O1 [DOXO, doxorubicin]
heart
  DOXO concentration, nmoles DOXO/g, Heart: 4.7 ± 0.3 nmoles DOXO/g
intestine
  DOXO concentration, nmoles DOXO/g, Intestine: 4.2 ± 0.6 nmoles DOXO/g
Moderately differentiated HCCs
  DOXO concentration, nmoles DOXO/g, MD HCCs: 3.1 ± 0.4 nmoles DOXO/g
Poorly differentiated HCCs
  DOXO concentration, nmoles DOXO/g, PD HCCs: 3.6 ± 0.4 nmoles DOXO/g
Well differentiated HCCs
  DOXO concentration, nmoles DOXO/g, WD HCCs: 3.4 ± 0.6 nmoles DOXO/g
